Patent publication US20240368168A1, “SARM1 ENZYME ACTIVITY INHIBITOR AND APPLICATION THEREOF” (ARTIVILA BIOPHARMA, priority 2021, published 2024)
Counter-ions that a name gives are not always drawn.

Molecular target: T1, dN-SARM1 protein (Homo sapiens, UniProt Q6SZW1)
T1 construct: the N-terminal mitochondrial localization signal peptide of SARM1 was removed
T1 sequence (Q6SZW1 28-724): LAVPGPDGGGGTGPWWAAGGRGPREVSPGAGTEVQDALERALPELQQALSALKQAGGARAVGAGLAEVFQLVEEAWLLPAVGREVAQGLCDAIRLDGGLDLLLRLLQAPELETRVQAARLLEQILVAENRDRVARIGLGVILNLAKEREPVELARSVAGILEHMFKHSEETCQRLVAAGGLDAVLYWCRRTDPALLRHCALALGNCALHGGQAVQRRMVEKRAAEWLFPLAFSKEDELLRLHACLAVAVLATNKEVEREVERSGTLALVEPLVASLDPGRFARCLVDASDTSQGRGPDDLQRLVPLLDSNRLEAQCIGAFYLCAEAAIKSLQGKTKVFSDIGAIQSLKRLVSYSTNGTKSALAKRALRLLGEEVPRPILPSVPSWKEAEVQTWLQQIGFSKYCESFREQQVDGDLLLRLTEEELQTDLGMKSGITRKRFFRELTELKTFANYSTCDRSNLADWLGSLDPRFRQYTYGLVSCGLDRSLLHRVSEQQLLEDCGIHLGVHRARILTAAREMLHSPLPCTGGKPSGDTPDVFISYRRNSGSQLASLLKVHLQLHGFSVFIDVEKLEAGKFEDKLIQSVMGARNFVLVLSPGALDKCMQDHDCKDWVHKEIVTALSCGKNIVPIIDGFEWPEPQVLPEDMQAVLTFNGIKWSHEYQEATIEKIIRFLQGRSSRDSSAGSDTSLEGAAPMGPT
Experiment: In vitro biochemical assay for inhibiting SARM1 enzymatic activity (IC50), PC6 fluorescence method
Conditions: 50 μM NAD, 50 μM PC6, 50 μM NMN activator
Procedure: 200 μM compound was first added to a solution of 0.05 μg/ml dN-SARM1 in 50 mM Tris-HCl (pH 7.5). Half of the mixture was added to an equal volume of a solution of 0.05 μg/ml dN-SARM1 in 50 mM Tris-HCl (pH 7.5) and mixed. The drug was diluted 6 times in this manner, with the final concentrations being 200, 100, 50, 25, 12.5, 6.25, 3.125 μM, or 200, 50, 12.5, 3.125, 0.78, 0.195, 0.049 μM, respectively. The protein without inhibitors added, being used as control group, was incubated at room temperature for 10 minutes.
50 μM NAD, 50 μM PC6 as substrate and 50 μM NMN as activator were added to the dN-SARM1 protein incubated with the inhibitor and reacted for 30 minutes at room temperature. The concentration of each component was the final concentration in the reaction system.
During the reaction, PC6 fluorescence spectrum dynamics were detected by a microplate reader, wherein the excitation wavelength and emission wavelength for detection were 390 nm and 520 nm, respectively. Finally, the reaction rate was used to express the activity of the protein, and the half inhibitory concentration was calculated. The higher the reaction rate, the stronger the protein activity, and the lower the inhibitory efficiency of the compound.
The dose curve of compounds inhibiting SARM1 enzymatic activity was determined using the above method.

Molecule `CC(C)(C)OC(=O)N1CCOCCN(C(=O)OC(C)(C)C)S(=O)(=O)c2cccc(c2)-c2cnc3ccc1cn23` [Compound 80, di-tert-butyl(E)-7-oxa-3-thio-4,10-diaza-1(3,6)-imidazol[1,2-a]pyridin-2(1,3)-phenylcyclodecane-4,10-dicarboxylate 3,3-dioxide] has an IC50 of 1 to 10 µM.

In the case of `NS(=O)(=O)c1cccc(-c2cnc3ccc(N[C@@H]4CCCNC4)cn23)c1` [Compound 89, (R)-3-(6-(piperidin-3-ylamino)imidazo[1,2-a]pyridin-3-yl)benzenesulfonamide], the IC50 is reported as under 1 µM.

`CNc1ccc2ncc(-c3cccc4c3CNC4=O)n2c1` [Compound 257] was tested, and the IC50 was under 1 µM.

For `CNc1ccc2ncc(-c3ccccc3C(C)NC(=O)C3CCOCC3)n2c1` (centres unmarked) [Compound 191], the IC50 was 1 to 10 µM.

Molecule `CC(=O)N(C)c1ccc2ncc(-c3cccc(C(=O)NC4CCOCC4)c3)n2c1` [Compound 309] has an IC50 of 1 to 10 µM.

`CNC(=O)c1ccccc1-c1cnc2ccc(N(C)C(=O)OC(C)(C)C)cn12` [Compound 174] showed an IC50 of under 1 µM.

With `CNc1ccc2ncc(C3CCCCC3)n2c1` [Compound 85, 3-cyclohexyl-N-methylimidazo[1,2-a]pyridin-6-amine] the IC50 was 1 to 10 µM.

For `CN(C(=O)OC(C)(C)C)c1ccc2ncc(-c3cccc4nccn34)n2c1` [Compound 173], the IC50 was 1 to 10 µM.

Work on `CN(C(=O)OC(C)(C)C)c1ccc2ncc(-c3cncc4ccccc34)n2c1` [Compound 268] yielded an IC50 of under 1 µM.

Work on `COCCNc1cccc(-c2cnc3ccc(N4CCOCC4)cn23)c1` [Compound 232] yielded an IC50 of 1 to 10 µM.

`CNc1ccc2ncc(-c3ccc4cn[nH]c4c3)n2c1` [Compound 284] was tested, and the IC50 was 1 to 10 µM.

Work on `CNc1ccc2ncc(-c3cccc(-n4cccc4)c3)n2c1` [Compound 200] yielded an IC50 of 1 to 10 µM.

`CN(C(=O)OC(C)(C)C)c1ccc2ncc(-c3cc4ccn(C)c4cn3)n2c1` [Compound 295] gave an IC50 of 1 to 10 µM.

Work on `CNc1ccc2ncc(C3CCCc4ncccc43)n2c1` (centres unmarked) [Compound 312] yielded an IC50 of 1 to 10 µM.

Molecule `O=C(Nc1cccc(-c2cnc3ccc(-n4cccn4)cn23)c1)C1CCOCC1` [Compound 207] has an IC50 of 1 to 10 µM.

With `CNc1ccc2ncc(-c3cccc4c3CN(CCOC)C4=O)n2c1` [Compound 290] the IC50 was 1 to 10 µM.

`CNc1ccc2ncc(-c3ccc(OC)cc3)n2c1` [Compound 72] was tested, and the IC50 was 1 to 10 µM.

With `CN(C(=O)OC(C)(C)C)c1ccc2ncc(-c3ccc4[nH]ccc4n3)n2c1` [Compound 196] the IC50 was 1 to 10 µM.

`CNc1ccc2ncc(-c3cccc(N)n3)n2c1` [Compound 180] was tested, and the IC50 was 1 to 10 µM.

`CN(C(=O)OC(C)(C)C)c1ccc2ncc(-c3ccccn3)n2c1` [Compound 18] was tested, and the IC50 was 1 to 10 µM.

`CN(C(=O)C1CC1)c1ccc2ncc(-c3cccc(N)c3)n2c1` [Compound 306] was tested, and the IC50 was under 1 µM.

For `COCCOCCNC(=O)c1cccc(-c2cnc3ccc(N(C)C(C)=O)cn23)c1` [Compound 310], the IC50 was 1 to 10 µM.

Molecule `CN(C(=O)OC(C)(C)C)c1ccc2ncc(-c3ccnc(NC(=O)c4ccccc4)c3)n2c1` [Compound 182] has an IC50 of 1 to 10 µM.

With `CC(=O)N(C)c1ccc2ncc(-c3ccccc3)n2c1` [Compound 42] the IC50 was under 1 µM.

With `CNc1ccc2ncc(-c3cccc(S(N)(=O)=O)c3)n2c1` [Compound 62, 3-(6-(methylamino)imidazo[1,2-a]pyridin-3-yl) benzenesulfonamide] the IC50 was 1 to 10 µM.

Work on `COCCOCCNc1cccc(-c2cnc3ccc(N4CCOCC4)cn23)c1` [Compound 229] yielded an IC50 of 1 to 10 µM.

`CN(C(=O)OC(C)(C)C)c1ccc2ncc(-c3ccnc4[nH]ccc34)n2c1` [Compound 184] showed an IC50 of 1 to 10 µM.

Molecule `CNc1ccc2ncc(-c3ccnc4c3ccn4C)n2c1` [Compound 294] has an IC50 of 1 to 10 µM.

`CN(C(=O)OC(C)(C)C)c1ccc2ncc(-c3cccc4cnn(C)c34)n2c1` [Compound 267] was tested, and the IC50 was under 1 µM.

With `CNc1ccc2ncc(-c3cnc(N)nc3)n2c1` [Compound 195] the IC50 was 1 to 10 µM.

`CNc1ccc2ncc(-c3cccc(NC(=O)COCCOCCOCC(=O)N[C@H](C(=O)N4C[C@H](O)C[C@H]4C(=O)NCc4ccc(-c5scnc5C)cc4)C(C)(C)C)c3)n2c1` [Compound 120, (2S,4R)-1-((S)-2-(tert-butyl)-14-((3-(6-(methylamino)imidazo[1,2-a]pyridin-3-yl)phenyl)amino)-4,14-dioxo-6,9,12-trioxa-3-azatetradecanoyl)-4-hydroxy-N-(4-(4-methylthiazol-5-yl)benzyl)pyrrolidin-2-carboxamide hydrochloride] was tested, and the IC50 was under 1 µM.

Molecule `CNc1ccc2ncc(-c3ccccc3C(=O)NC3CCOCC3)n2c1` [Compound 177] has an IC50 of 1 to 10 µM.

With `CN(C(=O)OC(C)(C)C)c1ccc2ncc(-c3ccc4cc[nH]c4n3)n2c1` [Compound 297] the IC50 was 1 to 10 µM.

Molecule `CN(C(=O)OC(C)(C)C)c1ccc2ncc(-c3cnc(N)nc3)n2c1` [Compound 194] has an IC50 of 1 to 10 µM.

Molecule `CNc1ccc2ncc(-c3cccc(S(=O)(=O)N(C)C(=O)OC(C)(C)C)c3)n2c1` [Compound 59, tert-butyl methyl ((3-(6-(methylamino)imidazo[1,2-a]pyridin-3-yl)phenyl)sulfonyl)carbamate] has an IC50 of 1 to 10 µM.

`CNC(=O)c1ccccc1-c1cnc2ccc(NC)cn12` [Compound 176] gave an IC50 of 1 to 10 µM.

In the case of `O=C(COCCOCc1ccccc1)Nc1cccc(-c2cnc3ccc(NCCCc4ccccc4)cn23)c1` [Compound 218], the IC50 is reported as 1 to 10 µM.

`CNc1ccc2ncc(-c3cccc(NC(=O)c4ccccc4)n3)n2c1` [Compound 172] showed an IC50 of under 1 µM.

With `CN(C(=O)C1CC1)c1ccc2ncc(I)n2c1` [Compound 305] the IC50 was under 1 µM.

With `CNc1ccc2ncc(-c3ccncc3F)n2c1` [Compound 261] the IC50 was under 1 µM.

`CNc1ccc2ncc(-c3cccc4c3CC(=O)N4)n2c1` [Compound 298] showed an IC50 of 1 to 10 µM.

Work on `CN(C(=O)OC(C)(C)C)c1ccc2ncc(-c3ccnc4c3ccn4C)n2c1` [Compound 293] yielded an IC50 of under 1 µM.

`CNc1ccc2ncc(-c3cccnc3)n2c1` [Compound 73] gave an IC50 of 1 to 10 µM.

Molecule `CNc1ccc2ncc(-c3cccc4c3CN(CCN(C)C)C4=O)n2c1` [Compound 292] has an IC50 of 1 to 10 µM.

Work on `CN(C(=O)OC(C)(C)C)c1ccc2ncc(-c3cccc4c3ccn4C)n2c1` [Compound 285] yielded an IC50 of 1 to 10 µM.

For `CN(C)c1ccc2ncc(-c3cccc4c3CNC4=O)n2c1` [Compound 223], the IC50 was under 1 µM.

With `COc1ccc2ncc(-c3cccc(S(N)(=O)=O)c3)n2c1` [Compound 5] the IC50 was 1 to 10 µM.

`COc1cccc(-c2cnc3ccc(N(C)C(=O)OC(C)(C)C)cn23)n1` [Compound 16] gave an IC50 of 1 to 10 µM.

Work on `CNc1ccc2ncc(-c3cccc(CNC(=O)C4CCOCC4)c3)n2c1` [Compound 242] yielded an IC50 of under 1 µM.

`CN(C(=O)OC(C)(C)C)c1ccc2ncc(-c3cncc4[nH]cc(I)c34)n2c1` [Compound 208, tert-butyl (3-(3-iodo-1H-pyrrolo[2,3-c]pyridin-4-yl)imidazo[1,2-a]pyridin-6-yl)(methyl) carbamate] gave an IC50 of 1 to 10 µM.

`Nc1cccc(-c2cnc3ccc(N4CCCC4=O)cn23)c1` [Compound 204] gave an IC50 of 1 to 10 µM.

Work on `CN(C(=O)OC(C)(C)C)c1ccc2ncc(-c3cccc(S(N)(=O)=O)c3)n2c1` [Compound 61, tert-butyl methyl (3-(3-sulfamoylphenyl)imidazo[1,2-a]pyridin-6-yl)carbamate] yielded an IC50 of 1 to 10 µM.

`COc1ccc2ncc(-c3cccc4c3CNC4=O)n2c1` [Compound 235] was tested, and the IC50 was 1 to 10 µM.

With `c1cc(-c2cnc3ccc(N4CCOCC4)cn23)cc(N2CCOCC2)c1` [Compound 226] the IC50 was 1 to 10 µM.

With `CC(C)(C)C(=O)Nc1ccc2ncc(I)n2c1` [Compound 304] the IC50 was 1 to 10 µM.

With `CN(C)CCN1Cc2c(cccc2-c2cnc3ccc(N(C)C(=O)OC(C)(C)C)cn23)C1=O` [Compound 291] the IC50 was 1 to 10 µM.

For `CNc1ccc2ncc(-c3ccccc3C)n2c1` [Compound 67], the IC50 was 1 to 10 µM.

For `CN(C(=O)OC(C)(C)C)c1ccc2ncc(-c3cccc(-n4cccn4)c3)n2c1` [Compound 178], the IC50 was under 1 µM.

`CNc1ccc2ncc(-c3cccc(-n4cccn4)c3)n2c1` [Compound 179] was tested, and the IC50 was under 1 µM.
